Data from ChEMBL document CHEMBL1127281, “Synthesis and anti-herpes activity of some a-ring functionalized dehydroabietane derivatives” (Bioorg Med Chem Lett, 1994).
≈ marks a conversion by molar mass, not a printed value.

Test system: Vero
Experiment: Concentration required for 50% inhibition of herpes simplex virus 2 (HSV-2) using standard plaque reduction assay in vero cells
Type: functional, cell-based
Details: Chlorocebus sabaeus

Row | SMILES | IC50 [µg/mL]
1 | C[C@]12CC[C@]3(C1)[C@H](CC2=O)C[C@@H](OC(=O)c1ccccc1)[C@H]1[C@](C)(C(=O)O)CCC[C@@]13C [SCOPADULCIC ACID B] | 0.2 (≈ 0.456 µM)

Test system: not listed separately
Experiment: Concentration required for 50% inhibition of herpes simplex virus 2(HSV-2) using standard plaque reduction assay in vero cells
Type: functional, cell-based
Details: Chlorocebus sabaeus

Row | IC50 [µg/mL] | SMILES
2 | 8 (≈ 29.4 µM) | CC(C)c1ccc2c(c1)CC[C@H]1C(=O)[C@@H](O)CC[C@]21C
3 | 3 (≈ 11.1 µM) | C=C1[C@@H](O)CC[C@]2(C)c3ccc(C(C)C)cc3CC[C@@H]12
4 | 10 (≈ 39.3 µM) | C=C1CCC[C@]2(C)c3ccc(C(C)C)cc3CC[C@@H]12
5 | 20 (≈ 69.3 µM) | CC(C)c1ccc2c(c1)CC[C@H]1[C@@H](CO)[C@@H](O)CC[C@]21C
6 | 9 (≈ 33 µM) | CC(C)c1ccc2c(c1)CC[C@H]1[C@@H](CO)CCC[C@]21C
7 | 14 (≈ 54.6 µM) | CC(C)c1ccc2c(c1)CC[C@H]1C(=O)CCC[C@]21C
8 | 15 (≈ 58 µM) | CC(C)c1ccc2c(c1)CC[C@H]1[C@@H](O)CCC[C@]21C
9 | 19 (≈ 69.2 µM) | CC(C)c1ccc2c(c1)CC[C@H]1[C@H](O)[C@@H](O)CC[C@]21C
10 | 17 (≈ 59.3 µM) | CC(C)c1ccc2c(c1)CC[C@H]1[C@](C)(CO)CCC[C@]21C [POMIFERIN A]

More lines, now with the values behind:

Row | SMILES | IC50 [µg/mL]
11 | CC(C)c1ccc2c(c1)CC[C@H]1[C@](C)(Sc3ccccn3)CCC[C@]21C | 20 (≈ 54.7 µM)
12 | C[C@@]1(CO)[C@H](O)CC[C@@]2(C)[C@H]1CCC1C[C@@H]3C[C@@]12CC[C@]3(O)CO (stereo partly drawn) | 0.2 (≈ 0.591 µM)
13 | CC(C)c1ccc2c(c1)CC[C@H]1[C@]3(CCC[C@]21C)CO3 | 20 (≈ 74 µM)
14 | CC(C)c1ccc2c(c1)CC[C@H]1[C@@](O)(CO)[C@@H](O)CC[C@]21C | 9 (≈ 29.6 µM)
15 | CC(C)c1ccc2c(c1)CC[C@H]1[C@@](O)(CO)CCC[C@]21C | 14 (≈ 48.5 µM)
16 | Nc1nc2c(ncn2COCCO)c(=O)[nH]1 [ACYCLOVIR] | 1.5 (≈ 6.66 µM)
17 | CC(C)c1ccc2c(c1)CC[C@H]1[C@](C)(C(=O)O)CCC[C@]21C [DEHYDROABIETIC ACID] | 20 (≈ 66.6 µM)
18 | COC(=O)[C@]1(C)CCC[C@]2(C)c3ccc(C(C)C)cc3CC[C@@H]12 [METHYL DEHYDROABIETATE] | 20 (≈ 63.6 µM)
